Test results: patent US9179678B2, “Substituted [1,2,4]triazoles and substituted tetrazoles as herbicides” (SYNGENTA LIMITED, priority 2012, dated 2015)

Legend:
Format in all cases: in vivo
[1] = tested on: Alopecurus myosuroides (ALOMY); experiment: Post-emergence glasshouse herbicide test; conditions: POST Application, 1000 g/h, after 13 days
Experimental: (§1) Seeds of a variety of test species are sown in standard soil in pots (Alopecurus myosuroides (ALOMY), Setaria faberi (SETFA), Echinochloa crus-galli (ECHCG), Solanum nigrum (SOLNI), Amaranthus retoflexus (AMARE), Ipomoea hederacea (IPOHE)). After cultivation for one day (pre-emergence) or after 8 days cultivation (post-emergence) under controlled conditions in a glasshouse (at 24/16° C., day/night; 14 hours light; 65% humidity), the plants are sprayed with an aqueous spray solution derived from the formulation of the technical active ingredient in acetone/water (50:50) solution containing 0.5% Tween 20 (polyoxyethelyene sorbitan monolaurate, CAS RN 9005-64-5). Compounds ae applied at 1000 g/h. The test plants are then grown in a glasshouse under controlled conditions in a glasshouse (at 24/16° C., day/night; 14 hours light; 65% humidity) and watered twice daily. After 13 days for pre and post-emergence, the test is evaluated for the percentage damage caused to the plant. The biological activities are shown in the following table on a five point scale (5=80-100%; 4=60-79%; 3=40-59%; 2=20-39%; 1=0-19%).

[2] = tested on: Amaranthus retoflexus (AMARE); experiment: Post-emergence glasshouse herbicide test; conditions: POST Application, 1000 g/h, after 13 days
Experimental: as §1

[3] = tested on: Echinochloa crus-galli (ECHCG); experiment: Post-emergence glasshouse herbicide test; conditions: POST Application, 1000 g/h, after 13 days
Experimental: as §1

[4] = tested on: Ipomoea hederacea (IPOHE); experiment: Post-emergence glasshouse herbicide test; conditions: POST Application, 1000 g/h, after 13 days
Experimental: as §1

Solanum nigrum (SOLNI) [5] = experiment: Post-emergence glasshouse herbicide test; conditions: POST Application, 1000 g/h, after 13 days
Experimental: as §1

Setaria faberi (SETFA) [6] = experiment: Post-emergence glasshouse herbicide test; conditions: POST Application, 1000 g/h, after 13 days
Experimental: as §1, with “Compounds ae applied at 1000 g/h.” left out

[7] = tested on: Alopecurus myosuroides (ALOMY); experiment: Pre-emergence glasshouse herbicide test; conditions: PRE Application, 1000 g/h, after 13 days
Experimental: as §1

[8] = tested on: Amaranthus retoflexus (AMARE); experiment: Pre-emergence glasshouse herbicide test; conditions: PRE Application, 1000 g/h, after 13 days
Experimental: as §1

[9] = tested on: Echinochloa crus-galli (ECHCG); experiment: Pre-emergence glasshouse herbicide test; conditions: PRE Application, 1000 g/h, after 13 days
Experimental: as §1

[10] = tested on: Ipomoea hederacea (IPOHE); experiment: Pre-emergence glasshouse herbicide test; conditions: PRE Application, 1000 g/h, after 13 days
Experimental: as §1

Setaria faberi (SETFA) [11] = experiment: Pre-emergence glasshouse herbicide test; conditions: PRE Application, 1000 g/h, after 13 days
Experimental: as §1

Solanum nigrum (SOLNI) [12] = experiment: Pre-emergence glasshouse herbicide test; conditions: PRE Application, 1000 g/h, after 13 days
Experimental: as §1

| Structure (SMILES) | percentage damage caused to the plant, ALOMY [1] | percentage damage caused to the plant, AMARE [2] | percentage damage caused to the plant, ECHCG [3] | percentage damage caused to the plant, IPOHE [4] | percentage damage caused to the plant, SOLNI (Solanum nigrum (SOLNI) [5]) | percentage damage caused to the plant, SETFA (Setaria faberi (SETFA) [6]) | percentage damage caused to the plant, ALOMY [7] | percentage damage caused to the plant, AMARE [8] | percentage damage caused to the plant, ECHCG [9] | percentage damage caused to the plant, IPOHE [10] | percentage damage caused to the plant, SETFA (Setaria faberi (SETFA) [11]) | percentage damage caused to the plant, SOLNI (Solanum nigrum (SOLNI) [12]) |
| --- | --- | --- | --- | --- | --- | --- | --- | --- | --- | --- | --- | --- |
| CCn1c(=O)c(C(=O)Nc2nnnn2C)cc2cnccc21 [Compound 2.003] | 1 (1=0-19%) | 3 (3=40-59%) | 1 (1=0-19%) | 2 (2=20-39%) | 3 (3=40-59%) | 1 (1=0-19%) | 1 (1=0-19%) | 1 (1=0-19%) | 1 (1=0-19%) | 1 (1=0-19%) | 1 (1=0-19%) | 1 (1=0-19%) |
| Cn1nnnc1NC(=O)c1nc2ccccc2n(-c2ccsc2)c1=O [Compound 5.005] | 2 (2=20-39%) | 5 (5=80-100%) | 5 (5=80-100%) | 5 (5=80-100%) | 5 (5=80-100%) | 5 (5=80-100%) | 2 (2=20-39%) | 5 (5=80-100%) | 5 (5=80-100%) | 5 (5=80-100%) | 3 (3=40-59%) | 5 (5=80-100%) |
| Cn1nnnc1NC(=O)c1nc2ccc(C(F)(F)F)cc2n(-c2ccccc2)c1=O [Compound 5.006] | 3 (3=40-59%) | 5 (5=80-100%) | 4 (4=60-79%) | 5 (5=80-100%) | 5 (5=80-100%) | 4 (4=60-79%) | 3 (3=40-59%) | 5 (5=80-100%) | 4 (4=60-79%) | 4 (4=60-79%) | 3 (3=40-59%) | 5 (5=80-100%) |
| Cn1nnnc1NC(=O)c1nc2ccccc2n(-c2cccc([N+](=O)[O-])c2)c1=O [Compound 5.025] | 5 (5=80-100%) | 5 (5=80-100%) | 5 (5=80-100%) | 4 (4=60-79%) | 5 (5=80-100%) | 5 (5=80-100%) | 2 (2=20-39%) | 5 (5=80-100%) | 3 (3=40-59%) | 4 (4=60-79%) | 2 (2=20-39%) | 5 (5=80-100%) |
| Cn1nnnc1NC(=O)c1nc2cc(Cl)ccc2n(-c2ccccc2)c1=O [Compound 5.007] | 2 (2=20-39%) | 5 (5=80-100%) | 2 (2=20-39%) | 5 (5=80-100%) | 5 (5=80-100%) | 5 (5=80-100%) | 2 (2=20-39%) | 5 (5=80-100%) | 2 (2=20-39%) | 5 (5=80-100%) | 5 (5=80-100%) | 5 (5=80-100%) |
